Laboratory results from patent US20240156822A1, “Methods For Treatment of Vitiligo” (Pfizer Inc., priority 2022, published 2024).

System: vitiligo
Assay: Clinical study of treatment of vitiligo: central read facial-VASI (primary efficacy endpoint)
Assay type: in vivo, human
Details: for Placebo-adjusted LS mean CFB (SE); % CFB in Central F-VASI at Week 24: oral once daily
Protocol: Subjects take the medication set forth herein orally once daily, and typically swallow the tablets whole with approximately one cup of ambient temperature water, without any manipulation or chewing. Dosing regimes include induction dosing of 100 or 200 mg and maintenance dosing of 50 mg, or a 24-week Treatment Period in which participants were treated with ritlecitinib 50 mg, 30 mg, or 10 mg. The induction period is an initial period of treatment of 4 weeks in the initial clinical trial. The maintenance period is 20 weeks Tablets may be taken with or without food. Subject response is evaluated at regular intervals after administration. The Vitiligo Area Scoring Index (VASI) is a validated quantitative scale, initially developed to measure the response of vitiligo to nbUVB treatment, but has since been used to evaluate various therapies for vitiligo. Clinical evaluations of vitiligo in this study include VASI, central read and site assessment of facial-VASI, static Investigator Global Assessment (sIGA), Body Surface Area (BSA) involvement, Vitiligo Extent Score (VES), and dermoscopy. Self-Assessment VES (SA-VES), Vitiligo Specific Quality of Life (VitiQoL), Dermatology Life Quality Index (DLQL), Hospital Anxiety and Depression Scale (HADS), Patient Global Impression of Change Vitiligo (PGIC-V), EQ-5D-5L, Healthcare Resource Utilization (HCRU) and Vitiligo Noticeability Scale (VNS). (b) Facial Vitiligo Area Scoring Index (Facial-VASI)—Central Read The central read facial-VASI are assessed based on the facial photographs taken at the site by a central reader. Clinical Trial Imaging Endpoint Process Standards—Guidance for Industry (April 2018). The central read facial-VASI is calculated using a formula that includes contribution of affected facial surface areas showing all six (6) different depigmentation rates (0.1, 0.25, 0.5, 0.75, 0.9 and 1) with a modified method described by Hamzavi et al. Hamzavi, I., […] The calculation of % affected total body surface area (BSA) is shown below: • Affected Facial Surface Area×4=% Affected Total Body Surface Area. Face is defined as the area from the hairline on top of the forehead to the jawline at the bottom of the cheeks. Facial-VASI (central read) will range from 0.000 to 4.000 by defining the affected Facial Surface Area (expressed as the value between 0.0 to 1.0) being 4% of total Body Surface Area. For example: 25% affected Facial Surface Area (0.25) represents 1% total body surface area (0.25×4). 15% affected Facial Surface Area (0.15) represents 0.6% total body surface area (0.15×4). The extent of depigmentation is expressed by the following percentages: 0, 10%, 25%, 50%, 75%, 90%, or 100%. At 100% depigmentation, no pigment is present; at 90%, specks of pigment are present; at 75%, the depigmented exceeded the pigmented area; at 50%, the depigmented and pigmented areas are equal; at 25%, the pigmented area exceeded the depigmented area; and at 10%, only specks of depigmentation are present. Scalp, neck, eyebrows, eyelashes, and vermilion are excluded from this calculation, although total VASI assessment includes all of these regions.

C=CC(=O)N1C[C@H](Nc2ncnc3[nH]ccc23)CC[C@@H]1C [Ritlecitinib, 1-[(2S,5R)-2-methyl-5-(7H-pyrrolo[2,3-d]pyrimidin-4-ylamino)-1-piperidinyl]-2-propen-1-one]
Efficacy criterion for the primary endpoint (% CFB in Central F-VASI at Week 24) (initial clinical studies): met the efficacy criterion for the primary endpoint
Placebo-adjusted LS mean CFB (SE); % CFB in Central F-VASI at Week 24 (treatment group 10 mg, 24-week treatment period): −4.13%
Placebo-adjusted LS mean CFB (SE); % CFB in Central F-VASI at Week 24 (treatment group 30 mg, 24-week treatment period): −16.93%
Placebo-adjusted LS mean CFB (SE); % CFB in Central F-VASI at Week 24 (treatment group 50 mg, 24-week treatment period): −22.05%
Placebo-adjusted LS mean CFB (SE); % CFB in Central F-VASI at Week 24 (treatment group 100/50 mg (induction 100 mg 4 weeks, maintenance 50 mg 20 weeks)): −22.99%
Placebo-adjusted LS mean CFB (SE); % CFB in Central F-VASI at Week 24 (treatment group 200/50 mg (induction 200 mg 4 weeks, maintenance 50 mg 20 weeks)): −23.62%
